According to ChEMBL document CHEMBL1201862, “PubChem BioAssay data set” (2004):
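Five concentrations, 48 hours, 96-well plates. At the GI50, growth is halved.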 Activity calls are given as the source filed them. Rule as the data show it: active = GI50 up to about 1.1 µM and inactive = higher.

Key:
Assay in all cases: inhibition of tumour cell growth, NCI panel, 48 h
[1] = test system: 786-0
[2] = test system: A498
[3] = test system: A549
[4] = test system: ACHN
[5] = test system: CAKI-1
[6] = test system: CCRF-CEM
[7] = test system: COLO 205
[8] = test system: DLD-1
[9] = test system: DMS-273
[10] = test system: EKVX
[11] = test system: HCC 2998
[12] = test system: HCT-15
[13] = test system: HL-60
[14] = test system: HOP-18
[15] = test system: HOP-92
[16] = test system: HT-29
[17] = test system: IGROV-1
[18] = test system: K562
[19] = test system: KM-20L2
[20] = test system: KM12
[21] = test system: LOX IMVI
[22] = test system: LXFL 529
[23] = test system: M14
[24] = test system: M19-MEL
[25] = test system: MOLT-4
[26] = test system: Malme-3M
[27] = test system: NCI-H226
[28] = test system: NCI-H23
[29] = test system: NCI-H460
[30] = test system: NCI-H522
[31] = test system: OVCAR-3
[32] = test system: OVCAR-4
[33] = test system: OVCAR-5
[34] = test system: OVCAR-8
[35] = test system: RPMI-8226
[36] = test system: RXF 393
[37] = test system: RXF 631
[38] = test system: SF-268
[39] = test system: SF-295
[40] = test system: SF-539
[41] = test system: SK-MEL-28
[42] = test system: SK-MEL-2
[43] = test system: SK-MEL-5
[44] = test system: SK-OV-3
[45] = test system: SN12C
[46] = test system: SNB-19
[47] = test system: SNB-75
[48] = test system: SW-620
[49] = test system: TK-10
[50] = test system: U-251
[51] = test system: UACC-257
[52] = test system: UACC-62
[53] = test system: UO-31
[54] = test system: XF498
[55] = test system: DMS-114
[56] = test system: HCT-116
[57] = test system: HOP-62
[58] = test system: SNB-78
[59] = test system: SR

O=C(O)CCCNS(=O)(=O)c1ccc2ccccc2c1
GI50 [1]: > 100 µM (inactive)
GI50 [2]: > 100 µM (inactive)
GI50 [3]: > 100 µM (inactive)
GI50 [4]: > 100 µM (inactive)
GI50 [5]: > 100 µM (inactive)
GI50 [6]: > 100 µM (inactive)
GI50 [7]: > 100 µM (inactive)
GI50 [8]: > 100 µM (inactive)
GI50 [9]: > 100 µM (inactive)
GI50 [10]: > 100 µM (inactive)
GI50 [11]: > 100 µM (inactive)
GI50 [12]: > 100 µM
GI50 [13]: > 100 µM (inactive)
GI50 [14]: > 100 µM (inactive)
GI50 [15]: 97.7 µM (inactive)
GI50 [16]: > 100 µM (inactive)
GI50 [17]: > 100 µM (inactive)
GI50 [18]: > 100 µM (inactive)
GI50 [19]: > 100 µM (inactive)
GI50 [20]: > 100 µM (inactive)
GI50 [21]: > 100 µM (inactive)
GI50 [22]: > 100 µM (inactive)
GI50 [23]: > 100 µM (inactive)
GI50 [24]: > 100 µM (inactive)
GI50 [25]: > 100 µM (inactive)
GI50 [26]: > 100 µM (inactive)
GI50 [27]: > 100 µM (inactive)
GI50 [28]: > 100 µM (inactive)
GI50 [29]: > 100 µM (inactive)
GI50 [30]: > 100 µM (inactive)
GI50 [31]: > 100 µM (inactive)
GI50 [32]: > 100 µM (inactive)
GI50 [33]: > 100 µM (inactive)
GI50 [34]: > 100 µM (inactive)
GI50 [35]: > 100 µM (inactive)
GI50 [36]: > 100 µM (inactive)
GI50 [37]: > 100 µM (inactive)
GI50 [38]: > 100 µM (inactive)
GI50 [39]: > 100 µM (inactive)
GI50 [40]: > 100 µM (inactive)
GI50 [41]: > 100 µM (inactive)
GI50 [42]: > 100 µM (inactive)
GI50 [43]: > 100 µM (inactive)
GI50 [44]: > 100 µM (inactive)
GI50 [45]: > 100 µM (inactive)
GI50 [46]: > 100 µM (inactive)
GI50 [47]: > 100 µM (inactive)
GI50 [48]: > 100 µM (inactive)
GI50 [49]: > 100 µM (inactive)
GI50 [50]: > 100 µM (inactive)
GI50 [51]: > 100 µM (inactive)
GI50 [52]: > 100 µM (inactive)
GI50 [53]: > 100 µM (inactive)
GI50 [54]: > 100 µM (inactive)

COC(=O)C(Cc1cc(OC)c(OC)c(OC)c1)(NC(=O)c1ccccc1)P(=O)(OC)OC (configuration not stated)
GI50 [2]: > 100 µM (inactive)
GI50 [3]: > 100 µM (inactive)
GI50 [4]: > 100 µM (inactive)
GI50 [5]: > 100 µM (inactive)
GI50 [6]: > 100 µM (inactive)
GI50 [7]: > 100 µM (inactive)
GI50 [8]: > 100 µM (inactive)
GI50 [55]: > 100 µM (inactive)
GI50 [9]: > 100 µM (inactive)
GI50 [10]: > 100 µM (inactive)
GI50 [11]: > 100 µM (inactive)
GI50 [56]: > 100 µM (inactive)
GI50 [12]: > 100 µM
GI50 [13]: > 100 µM (inactive)
GI50 [57]: > 100 µM (inactive)
GI50 [15]: > 100 µM (inactive)
GI50 [16]: > 100 µM (inactive)
GI50 [17]: > 100 µM (inactive)
GI50 [18]: > 100 µM (inactive)
GI50 [19]: > 100 µM (inactive)
GI50 [20]: > 100 µM (inactive)
GI50 [21]: > 100 µM (inactive)
GI50 [22]: > 100 µM (inactive)
GI50 [23]: > 100 µM (inactive)
GI50 [24]: > 100 µM (inactive)
GI50 [25]: > 100 µM (inactive)
GI50 [27]: > 100 µM (inactive)
GI50 [28]: > 100 µM (inactive)
GI50 [29]: > 100 µM (inactive)
GI50 [30]: > 100 µM (inactive)
GI50 [32]: > 100 µM (inactive)
GI50 [33]: > 100 µM (inactive)
GI50 [34]: > 100 µM (inactive)
GI50 [35]: > 100 µM (inactive)
GI50 [36]: > 100 µM (inactive)
GI50 [37]: > 100 µM (inactive)
GI50 [38]: > 100 µM (inactive)
GI50 [39]: > 100 µM (inactive)
GI50 [40]: > 100 µM (inactive)
GI50 [41]: > 100 µM (inactive)
GI50 [42]: > 100 µM (inactive)
GI50 [43]: > 100 µM (inactive)
GI50 [44]: > 100 µM (inactive)
GI50 [45]: > 100 µM (inactive)
GI50 [46]: > 100 µM (inactive)
GI50 [47]: > 100 µM (inactive)
GI50 [58]: > 100 µM (inactive)
GI50 [59]: > 100 µM (inactive)
GI50 [48]: > 100 µM (inactive)
GI50 [49]: > 100 µM (inactive)
GI50 [50]: > 100 µM (inactive)
GI50 [51]: > 100 µM (inactive)
GI50 [52]: > 100 µM (inactive)
GI50 [53]: > 100 µM (inactive)
GI50 [54]: > 100 µM (inactive)

COC(=O)[C@]12CC=C3O[C@@H]4OC5(CCCCC5)O[C@@H]4C3[C@@H]1C(=O)CCC2=O (some centres not stated)
GI50 [1]: > 100 µM (inactive)
GI50 [2]: > 100 µM (inactive)
GI50 [3]: > 100 µM (inactive)
GI50 [4]: > 100 µM (inactive)
GI50 [5]: > 100 µM (inactive)
GI50 [6]: > 100 µM (inactive)
GI50 [7]: > 100 µM (inactive)
GI50 [8]: > 100 µM (inactive)
GI50 [55]: > 100 µM (inactive)
GI50 [9]: > 100 µM (inactive)
GI50 [10]: > 100 µM (inactive)
GI50 [11]: > 100 µM (inactive)
GI50 [56]: > 100 µM (inactive)
GI50 [12]: > 100 µM
GI50 [13]: > 100 µM (inactive)
GI50 [14]: > 100 µM (inactive)
GI50 [57]: > 100 µM (inactive)
GI50 [15]: > 100 µM (inactive)
GI50 [16]: > 100 µM (inactive)
GI50 [17]: > 100 µM (inactive)
GI50 [18]: > 100 µM (inactive)
GI50 [19]: > 100 µM (inactive)
GI50 [20]: > 100 µM (inactive)
GI50 [21]: > 100 µM (inactive)
GI50 [22]: > 100 µM (inactive)
GI50 [23]: > 100 µM (inactive)
GI50 [25]: > 100 µM (inactive)
GI50 [26]: > 100 µM (inactive)
GI50 [27]: > 100 µM (inactive)
GI50 [28]: > 100 µM (inactive)
GI50 [29]: > 100 µM (inactive)
GI50 [30]: 83.4 µM (inactive)
GI50 [31]: 36.5 µM (inactive)
GI50 [32]: > 100 µM (inactive)
GI50 [33]: > 100 µM (inactive)
GI50 [34]: > 100 µM (inactive)
GI50 [35]: > 100 µM (inactive)
GI50 [37]: > 100 µM (inactive)
GI50 [38]: > 100 µM (inactive)
GI50 [39]: > 100 µM (inactive)
GI50 [41]: > 100 µM (inactive)
GI50 [42]: > 100 µM (inactive)
GI50 [43]: > 100 µM (inactive)
GI50 [44]: > 100 µM (inactive)
GI50 [45]: > 100 µM (inactive)
GI50 [46]: > 100 µM (inactive)
GI50 [47]: > 100 µM (inactive)
GI50 [58]: > 100 µM (inactive)
GI50 [48]: > 100 µM (inactive)
GI50 [50]: > 100 µM (inactive)
GI50 [51]: > 100 µM (inactive)
GI50 [52]: > 100 µM (inactive)
GI50 [53]: > 100 µM (inactive)
GI50 [54]: > 100 µM (inactive)

CN(C(=O)C12C3(C(=O)C(C)(C)C)C4C5(C#N)C3C1(C(=O)C(C)(C)C)C5C42C(=O)C(C)(C)C)C(C)(C)C (configuration not stated)
GI50 [1]: > 50 µM (inactive)
GI50 [2]: > 50 µM (inactive)
GI50 [3]: > 50 µM (inactive)
GI50 [4]: 25.2 µM (inactive)
GI50 [5]: 33.8 µM (inactive)
GI50 [6]: 16.6 µM (inactive)
GI50 [7]: > 50 µM (inactive)
GI50 [8]: 35.3 µM (inactive)
GI50 [55]: 17.7 µM (inactive)
GI50 [9]: 42.8 µM (inactive)
GI50 [10]: 43.3 µM (inactive)
GI50 [11]: > 50 µM (inactive)
GI50 [56]: 24.2 µM (inactive)
GI50 [12]: > 50 µM
GI50 [13]: 16.1 µM (inactive)
GI50 [57]: > 50 µM (inactive)
GI50 [15]: 30.8 µM (inactive)
GI50 [16]: > 50 µM (inactive)
GI50 [17]: > 50 µM (inactive)
GI50 [18]: 27.2 µM (inactive)
GI50 [19]: > 50 µM (inactive)
GI50 [20]: > 50 µM (inactive)
GI50 [22]: 21.4 µM (inactive)
GI50 [23]: > 50 µM (inactive)
GI50 [24]: > 50 µM (inactive)
GI50 [25]: 20 µM (inactive)
GI50 [26]: > 50 µM (inactive)
GI50 [27]: > 50 µM (inactive)
GI50 [28]: 40.6 µM (inactive)
GI50 [29]: > 50 µM (inactive)
GI50 [30]: 14.5 µM (inactive)
GI50 [31]: 38.9 µM (inactive)
GI50 [32]: 31.6 µM (inactive)
GI50 [33]: > 50 µM (inactive)
GI50 [34]: > 50 µM (inactive)
GI50 [37]: 42.4 µM (inactive)
GI50 [38]: 32.5 µM (inactive)
GI50 [39]: > 50 µM (inactive)
GI50 [40]: > 50 µM (inactive)
GI50 [41]: > 50 µM (inactive)
GI50 [43]: > 50 µM (inactive)
GI50 [44]: > 50 µM (inactive)
GI50 [45]: > 50 µM (inactive)
GI50 [46]: > 50 µM (inactive)
GI50 [47]: 8.95 µM (inactive)
GI50 [58]: > 50 µM (inactive)
GI50 [59]: 43.8 µM (inactive)
GI50 [48]: > 50 µM (inactive)
GI50 [49]: > 50 µM (inactive)
GI50 [50]: > 50 µM (inactive)
GI50 [51]: 19.6 µM (inactive)
GI50 [52]: 48.8 µM (inactive)
GI50 [53]: 29.6 µM (inactive)
GI50 [54]: 10.4 µM (inactive)
